Measured values as given in patent publication US20170002313A1, “COMPOSITIONS AND METHODS OF OBTAINING AND USING ENDODERM AND HEPATOCYTE CELLS” (Genentech Inc., priority 2012, published 2017).

Legend:
[1] = system: human embryonic stem cells (hESC); assay: Endoderm differentiation of hESC with small-molecule inhibitors, flow cytometry of endoderm markers; assay type: cell-based
Excerpt: A variety of cell-type specific markers were used to monitor the differentiation of stem cells into endoderm cells in the flow cytometry, fluorescence imaging, and immunoassay experiments described below. To detect endoderm conversion, hESC-derived cell samples were stained for the expression of SOX17, FoxA2, and CXCR4 proteins. SOX17, FoxA2, and CXCR4 are proteins that are expressed by endoderm cells but not by stem cells. To detect stem cells, cell samples were stained for the expression of OCT4, a protein expressed by stem cells but not by endoderm cells.
Undifferentiated human embryonic stem cells (hES) were maintained at a density of 40,000 cells/cm^2 on qualified matrigel (BD, #354277) in TesR™2 medium ([…]™ Technologies #05860). Cultures were manually passaged twice a week. To prepare for endoderm differentiation, hESC cells were passaged into TesR™2 medium overnight. The following day, the TesR™2 medium was replaced with basal medium (DMEM/F12+Glutamax (Invitrogen, #10565) supplemented with B27 (Invitrogen, #17504-044)). No human embryos were destroyed in the process of obtaining stem cells for these methods. Furthermore, the plurality of stem cells is not obtained by the prior destruction of human embryos.
Unless otherwise noted, basal medium was supplemented with […] human Activin A (Peprotech, #120-14). When indicated, basal medium was also supplemented with an effective amount of, e.g., a growth factor such as […] human Wnt3a (R&D, #5036-WN-010), an isoform-specific P13K inhibitor or an mTOR inhibitor. […]
To prepare the cells for flow cytometry, hESC-derived cells grown under endoderm differentiation conditions were dissociated using Accutase (Innovative Cell technologies, #AT-104). Briefly, the cells were washed once in PBS, incubated with Accutase for 10 minutes at room temperature, pelleted, and washed in cold PBS. The Accutase-dissociated hESC-derived cell samples were stained with anti-CXC4 antibody, anti-SOX17 antibody, or anti-FoxA2 antibody. Additional cell samples were stained with isotype control antibodies (e.g., IgG1 or IgG2).
The cells that were to be stained with anti-CXCR4 antibody were washed once with cold DPBS and then directly stained with mouse anti-human CD184 (CXCR4)-IgG2-PE (BD, #555974) for one hour at 4° C. The cells that were to be stained with anti-SOX17 antibody or anti-FoxA2 antibody were first fixed for 25 minutes at 4° C. in fixation buffer (BD, #554655) and permeabilized for 30 minutes on ice in Perm Buffer III (BD, #554656). Anti-SOX17 staining was performed using a mouse anti-SOX17 IgG1-PE antibody (BD, #561591) at room temperature for 30 minutes. Anti-FoxA2 staining was performed using a mouse anti-human FoxA2 IgG1 (BD, #561589) under the same conditions. A control sample of cells were fixed as described above and stained with either an anti-IgG1-PE antibody (BD, #554680) at room temperature for 30 minutes or an anti-IgG2-PE antibody (BD, #55574) for one hour at 4° C.
The antibody-stained hESC-derived cells were then analyzed via flow cytometry using a BD LSRFortessa™ cell analyzer. […] Approximately 1×10^6 cells were analyzed per sample.

[2] = system: human embryonic stem cells (hESC); assay: AlphaLISA of SOX17 and OCT4 in hESC-derived cells; assay type: cell-based
Description: To detect OCT4, the cells were washed three times in PBS and lysed with 50 ul AlphaLISA Lysis Buffer (Perkin Elmer, #AL003C). The lysis buffer was added to each cell sample and mixed with the cells five times. The cell samples were then incubated in a plate shaker at room temperature for 15 minutes. 5 μl of the lysate from each sample was then transferred to a 384 well OptiPlate (Perkin Elmer, #6005629). 5 μl of 10 ug/ml anti-rabbit acceptor bead (Perkin Elmer, #AL104M) and […] of 0.2 nM of rabbit anti-OCT4 antibody (Cell Signaling, #2890) was added to each well and incubated for 2 hours at room temperature. Following the incubation, 5 μl of 0.5 nM mouse anti-OCT4 antibody (BD, #611203) and […] of 0.5 nM biotinylated goat anti-mouse antibody (Invitrogen, #B2763) were added to each well and incubated at room temperature for 2 hours. Following the incubation, […] of streptavidin donor beads (Perkin Elmer, #6760002B) were added to each well and incubated for 30 minutes. The OptiPlates were then analyzed using an Envision Multilabel Plate Reader (Perkin Elmer, #2104-0010). All beads and antibodies were diluted as necessary in IAB Buffer (Perkin Elmer, #AL000C)+50 mM NaCl. Four replicate assays were performed.
To detect SOX17, the cells were washed three times in PBS and lysed with 50 ul Roche Complete Lysis Buffer (Roche, #04719956001). The lysis buffer was added to each cell sample and mixed with the cells five times. The cell samples were then incubated in a plate shaker at room temperature for 15 minutes. 5 μl of the lysate from each sample was then transferred to a 384 well OptiPlate (Perkin Elmer, #6005629). 5 μl of 10 ug/ml anti-rabbit acceptor bead (Perkin Elmer, #AL104M) and […] of 1 nM of rabbit anti-SOX17 antibody (Sigma, #AV33271) was added to each well and incubated for 2 hours at room temperature. Following the incubation, 5 μl of 0.5 nM mouse anti-SOX antibody (Sigma, #SAB3300093) and […] of 0.5 nM biotinylated goat anti-mouse antibody (Invitrogen, #B2763) were added to each well and incubated at room temperature for 2 hours. Following the incubation, […] of streptavidin donor beads (Perkin Elmer, #6760002B) were added to each well and incubated for 30 minutes. The OptiPlates were then analyzed using an Envision Multilabel Plate Reader (Perkin Elmer, #2104-0010). All beads and antibodies were diluted as necessary in IAB Buffer (Perkin Elmer, #AL000C) Four replicate assays were performed.
After a 3-day treatment, cells were harvested and stained with anti-SOX17 antibody as described above in preparation for AlphaLISA analysis.

hESC-derived cells = assay: xCELLigence proliferation and viability time course; assay type: cell-based, human; conditions: 12 days, no medium change; Activin A + 750 nM Compound A, or Activin A + Wnt3a + 5 μM LY294002
Description: The hESC-derived cells grown under each condition were assayed for their proliferation and viability once a day for 12 days with no medium change using Roche's xCELLigence System according to standard protocol.
xCELLigence measured proliferation and viability as a function of impedance signal. High impedance signals indicated cell attachment to the surface of the culture dish, which is associated with increased proliferation. In contrast low impedance signals indicated cells' detachment from the surface of the culture dish, which is associated with cell death. […] The experiments whose results are depicted in FIG. 8 were performed in duplicate. Accordingly, there are two curves for each condition.

[3] = system: hESC-derived endoderm cells; assay: CellTiter-Glo Luminescent Cell Viability Assay; assay type: cell-based, human; conditions: Activin A + 100 nM to 1.5 μM Compound A, 7 days
Excerpt: In this assay, metabolically active cells in each sample tested were quantified as a function of ATP levels produced by the sample.

mTOR = mTOR (Homo sapiens, UniProt P42345); assay: In vitro kinase profile, PI3K alpha_MTOR score; assay type: biochemical
Description: (§1) The effect of each compound on the PI3K/AKT/MTOR pathway was evaluated in two ways: via a kinase profile (FIG. 23) and via phospho imaging assays (i.e., immunofluorescence assays using antibodies specific for the phosphorylated form of mTOR or AKT). In vitro kinase profiling provided percent inhibition for numerous targets within the PI3K cell signaling pathway, and cell-based imaging assays were performed to directly visualize the effect of each compound on phosphorylated Akt and phosphorylated mTOR in the cell system used for differentiation.
(§2) In column 2 of Table 6, the PI3K alpha_MTOR score reflects the ability of a compound to inhibit the phosphorylation of PI3K alpha and mTOR, where + indicates minimal inhibition, and +++ indicates maximal inhibition. In column 3 of Table 6, the score indicates the ratio of phosphorylated mTOR (as measured by fluorescence intensity) in cells treated with a compound and the phosphorylated mTOR (as measured by fluorescence intensity) in cells that were not treated with the compound. In column 4 of Table 6, the score indicates the ratio of phosphorylated AKT (as measured by fluorescence intensity) in cells treated with a compound and the phosphorylated AKT (as measured by fluorescence intensity) in cells that were not treated with the compound. A reported effect of AKT inhibitors is an increase in phosphorylated AKT.

Akt = assay: In vitro kinase profile; assay type: biochemical
Description: as §1

phosphorylated mTOR = assay: Phospho imaging assay (immunofluorescence); assay type: cell-based, human
Description: as §1, §2

phosphorylated AKT = assay: Phospho imaging assay (immunofluorescence); assay type: cell-based, human
Description: as §1, §2

[4] = system: human embryonic stem cells (hESC); assay: Dose response with Activin A for optimal concentration (SOX17, cell death); assay type: cell-based
Description: To facilitate extended characterization, it was necessary to determine the optimal concentration of each of the compounds for use subsequent experiments. The optimal concentration of each compound was determined based on two parameters: highest efficiency of endoderm differentiation and low toxicity. Each compound was tested with Activin A in a dose response manner. The concentration that gave the highest % SOX17 expressing cells at Day 3 without causing more than 30% cell death compared to control was determined for each compound. The yield of differentiation went from 4% to 81% SOX17+ cells at day 3.

PI3K alpha = PI3K alpha (Homo sapiens, UniProt P42336); assay: In vitro kinase profile, PI3K alpha_MTOR score; assay type: biochemical
Sequence of PI3K alpha (P42336 whole entry, species assumed): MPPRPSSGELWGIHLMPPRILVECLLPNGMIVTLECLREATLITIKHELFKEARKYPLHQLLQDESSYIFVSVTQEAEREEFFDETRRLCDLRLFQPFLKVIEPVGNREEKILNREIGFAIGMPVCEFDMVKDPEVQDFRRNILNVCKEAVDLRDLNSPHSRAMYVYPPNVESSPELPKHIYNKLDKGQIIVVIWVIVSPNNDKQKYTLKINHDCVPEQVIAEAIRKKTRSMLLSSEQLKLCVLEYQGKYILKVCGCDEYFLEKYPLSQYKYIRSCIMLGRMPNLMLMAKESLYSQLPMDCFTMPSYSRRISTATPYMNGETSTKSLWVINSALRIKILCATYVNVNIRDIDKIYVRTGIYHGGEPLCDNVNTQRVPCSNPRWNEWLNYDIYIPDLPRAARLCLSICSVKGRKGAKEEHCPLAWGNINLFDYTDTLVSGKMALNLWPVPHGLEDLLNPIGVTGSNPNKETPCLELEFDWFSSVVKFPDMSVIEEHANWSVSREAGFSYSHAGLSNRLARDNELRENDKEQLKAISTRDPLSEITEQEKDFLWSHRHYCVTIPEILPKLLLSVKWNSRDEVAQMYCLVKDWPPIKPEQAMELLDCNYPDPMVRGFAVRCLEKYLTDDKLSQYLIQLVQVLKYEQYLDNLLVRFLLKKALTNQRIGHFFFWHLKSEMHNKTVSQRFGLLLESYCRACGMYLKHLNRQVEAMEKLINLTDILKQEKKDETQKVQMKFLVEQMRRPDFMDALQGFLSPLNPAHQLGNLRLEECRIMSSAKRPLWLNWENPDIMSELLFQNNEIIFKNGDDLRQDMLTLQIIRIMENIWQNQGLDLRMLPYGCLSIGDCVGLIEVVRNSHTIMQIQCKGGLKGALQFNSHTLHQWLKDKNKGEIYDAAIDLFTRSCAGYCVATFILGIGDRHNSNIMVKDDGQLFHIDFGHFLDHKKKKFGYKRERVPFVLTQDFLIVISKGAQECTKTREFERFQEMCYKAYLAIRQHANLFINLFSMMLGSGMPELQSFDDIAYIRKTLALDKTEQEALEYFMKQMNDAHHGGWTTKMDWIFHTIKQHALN
Sequence of PI3K alpha (P27986 whole entry partner, species assumed): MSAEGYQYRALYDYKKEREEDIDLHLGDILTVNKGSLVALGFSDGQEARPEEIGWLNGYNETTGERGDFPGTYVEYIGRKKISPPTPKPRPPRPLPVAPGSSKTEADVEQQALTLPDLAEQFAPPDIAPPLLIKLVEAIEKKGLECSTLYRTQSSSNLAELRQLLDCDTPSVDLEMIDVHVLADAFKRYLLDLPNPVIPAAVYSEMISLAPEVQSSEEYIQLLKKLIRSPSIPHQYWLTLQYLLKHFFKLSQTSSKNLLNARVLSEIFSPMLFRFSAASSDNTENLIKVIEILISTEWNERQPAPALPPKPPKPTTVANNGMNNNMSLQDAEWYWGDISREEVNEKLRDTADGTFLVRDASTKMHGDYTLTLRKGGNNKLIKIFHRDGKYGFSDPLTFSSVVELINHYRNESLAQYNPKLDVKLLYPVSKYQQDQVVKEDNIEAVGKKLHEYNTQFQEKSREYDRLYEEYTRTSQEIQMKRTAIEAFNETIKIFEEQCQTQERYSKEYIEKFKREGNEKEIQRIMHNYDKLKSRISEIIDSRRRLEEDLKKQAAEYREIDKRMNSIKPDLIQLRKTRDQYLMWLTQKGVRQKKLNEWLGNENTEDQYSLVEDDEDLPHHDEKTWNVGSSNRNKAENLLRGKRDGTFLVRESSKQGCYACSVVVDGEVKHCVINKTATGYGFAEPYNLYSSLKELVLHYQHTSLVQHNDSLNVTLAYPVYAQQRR
Description: as §1, §2

[5] = system: hESC-derived endoderm cells; assay: Hepatocyte differentiation of endoderm cells, flow cytometry; assay type: cell-based, human; conditions: hepatoblast medium in the absence of FGF4 and BMP2
Description: After 10-day treatment, the endoderm-derived cells were harvested using TrypLE. Briefly, the cells were washed once in PBS, incubated with TrypLE for 5 minutes at 37° C. The incubated cells were then diluted 10-fold with PBS, pelleted, and prepared for further analysis.
Prior to flow cytometry analysis, the Accutase-dissociated endoderm-derived cell samples were stained with an anti-AFP primary antibody followed by a secondary antibody.
The harvested endoderm-derived cells were washed with cold DPBS. […] The cells were washed three more times in permeabilization/wash buffer prior to flow cytometry analysis.
HepG2 cells, which were derived from a well-differentiated hepatocellular carcinoma, were also stained as a positive control. The cells were analyzed via flow cytometry as described above. Approximately 1.5×10^6 cells were analyzed per sample.
Endoderm cells were treated with different combinations of growth factors and tested for their capability to differentiate into hepatocytes. hESC were differentiated into endoderm cells as described above. […] After 10 days of treatment, the endoderm-derived cells were prepared for flow cytometry and imaging analysis as described above.
An additional control sample was prepared in which endoderm cells obtained by culture with Activin A alone were cultured in hepatoblast medium in the absence of any additional growth factors. […]

[6] = time course, Activin A + 750 nM Compound A, no Wnt3a, day 5
[7] = dose response of Compound A with Activin A
[8] = Activin A + 750 nM inhibitor, no Wnt3a, 3-day treatment

## CS(=O)(=O)N1CCN(Cc2cc3nc(-c4cccc5[nH]ncc45)nc(N4CCOCC4)c3s2)CC1 [Compound A, 4-[2-(1H-indazol-4-yl)-6-[(4-methylsulfonylpiperazin-1-yl)methyl]thieno[3,2-d]pyrimidin-4-yl]morpholine]
[1]; Activin A + Wnt3a + 500 nM inhibitor, 3-day treatment
  % of hESC-derived cells expressing SOX17: 93.5-93.9%
[1]; dose response, Activin A + 750 nM Compound A, no Wnt3a, 3-day treatment
  % of hESC-derived cells expressing SOX17: 84%
[1]; isoform-specific PI3K inhibitor + Activin A alone, 3-day treatment
  % of hESC-derived cells expressing SOX17: about 77.35%
[1]; [6]
  % of hESC-derived cells expressing CXCR4: 82%
  % of hESC-derived cells expressing FoxA2: 87%
  % of hESC-derived cells expressing SOX17: 91%
[2]; [7]
  OCT4 expression (AlphaLISA): decreases
  SOX17 expression (AlphaLISA): increases with increasing concentrations of Compound A up to 750 nM
hESC-derived cells
  viability and proliferation (impedance signal): remain viable and proliferative past day 4
[3]
  viability (ATP levels): greater viability at 7 days

## CCNC(=O)Nc1ccc2ncc(Nc3ccc(C)cc3)nc2n1 [Compound D1066]
mTOR
  reduction of phosphorylation of mTOR (FIG. 23): did not show reduction of phosphorylation of mTOR or Akt
Akt
  reduction of phosphorylation of Akt (FIG. 23): did not show reduction of phosphorylation of mTOR or Akt
Phosphorylated mTOR
  effect on mTOR phosphorylation in cell-based imaging assays: did not exhibit any effects on Akt or mTOR phosphorylation
Phosphorylated AKT
  effect on Akt phosphorylation in cell-based imaging assays: did not exhibit any effects on Akt or mTOR phosphorylation

## CO[C@@H]1[C@H](N(C)C(=O)c2ccccc2)C[C@H]2O[C@]1(C)n1c3ccccc3c3c4c(c5c6ccccc6n2c5c31)C(=O)NC4 [PKC412]
[4]
  toxicity: may be toxic
mTOR
  reduction of phosphorylation of mTOR (FIG. 23): potent reduction of phosphorylation

## COc1ccc(COc2cc3oc(=O)c4cc(C(C)O)ccc4c3cc2OC)cc1 (stereo not drawn) [Palomid 529]
mTOR
  reduction of phosphorylation of mTOR (FIG. 23): did not show reduction of phosphorylation of mTOR or Akt
Akt
  reduction of phosphorylation of Akt (FIG. 23): did not show reduction of phosphorylation of mTOR or Akt
Phosphorylated mTOR
  effect on mTOR phosphorylation in cell-based imaging assays: did not exhibit any effects on Akt or mTOR phosphorylation
Phosphorylated AKT
  effect on Akt phosphorylation in cell-based imaging assays: did not exhibit any effects on Akt or mTOR phosphorylation

## CO[C@H]1C[C@@H]2CC[C@@H](C)[C@@](O)(O2)C(=O)C(=O)N2CCCC[C@H]2C(=O)O[C@H]([C@H](C)C[C@@H]2CC[C@@H](OCCO)[C@H](OC)C2)CC(=O)[C@H](C)/C=C(\C)[C@@H](O)[C@@H](OC)C(=O)[C@H](C)C[C@H](C)/C=C/C=C/C=C/1C [everolimus]
mTOR
  PI3K alpha_MTOR score: MTOR: PI3K alpha+_MTOR+
PI3K alpha
  PI3K alpha_MTOR score: PI3K alpha: PI3K alpha+_MTOR+
[1]; [8]
  endoderm conversion (SOX17, FoxA2, CXCR4 flow cytometry): higher degree of endoderm conversion
[2]; [8]
  endoderm conversion (SOX17 AlphaLISA): better endoderm conversion than cells cultured in Activin A alone or cells cultured with an Akt inhibitor
Phosphorylated mTOR; 1 h
  Avg(Avg (Ph MTOR_60m_%C # Spots)): 36.46 %C

B1: Activin A: human Activin A (Peprotech), member of the TGF beta family (protein, UniProt P08476 311-426, looked up)
Inhibin beta A chain: GLECDGKVNICCKKQFFVSFKDIGWNDWIIAPSGYHANYCEGECPSHIAGTSGSSLSFHSTVINHYRMRGHSPFANLKSCCVPTKLRPMSMLYYDDGQNIIKKDIQNMIVEECGCS
modifications: Inhibin beta A chain homodimer
[1]; Activin A alone, 3-day treatment
  % of hESC-derived cells expressing SOX17: 20%
[5]
  % of endoderm-derived cells expressing AFP: 7.65%
